Experimental data published in ChEMBL document CHEMBL3991601, “The target landscape of clinical kinase drugs” (Science, 2017).
Calls of active or inactive are those of the source.

Key:
[1] = target: T1, Acyl-CoA dehydrogenase family member 11 (Homo sapiens, UniProt Q709F0)
T1 sequence (Q709F0 whole entry): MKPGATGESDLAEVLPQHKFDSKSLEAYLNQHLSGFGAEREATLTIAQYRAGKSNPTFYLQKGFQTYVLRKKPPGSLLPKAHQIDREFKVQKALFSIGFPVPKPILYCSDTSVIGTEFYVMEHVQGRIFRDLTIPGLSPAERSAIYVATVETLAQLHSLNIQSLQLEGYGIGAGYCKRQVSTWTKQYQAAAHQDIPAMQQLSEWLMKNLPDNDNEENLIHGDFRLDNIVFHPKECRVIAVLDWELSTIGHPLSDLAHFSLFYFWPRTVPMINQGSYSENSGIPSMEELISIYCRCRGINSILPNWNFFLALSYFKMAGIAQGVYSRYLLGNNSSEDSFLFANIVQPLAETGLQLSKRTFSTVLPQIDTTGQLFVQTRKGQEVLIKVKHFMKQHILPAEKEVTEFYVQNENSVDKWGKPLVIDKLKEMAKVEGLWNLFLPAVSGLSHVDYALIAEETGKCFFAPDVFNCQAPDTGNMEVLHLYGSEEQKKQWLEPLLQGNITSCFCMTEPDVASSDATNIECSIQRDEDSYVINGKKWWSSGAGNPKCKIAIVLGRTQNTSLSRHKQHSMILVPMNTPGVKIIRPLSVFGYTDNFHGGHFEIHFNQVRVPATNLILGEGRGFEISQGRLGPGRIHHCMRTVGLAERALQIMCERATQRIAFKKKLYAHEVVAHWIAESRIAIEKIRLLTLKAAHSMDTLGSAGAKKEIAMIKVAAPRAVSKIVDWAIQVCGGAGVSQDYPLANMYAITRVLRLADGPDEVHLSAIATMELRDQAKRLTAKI

[2] = target: Atypical kinase COQ8A, mitochondrial (Homo sapiens, UniProt Q8NI60)
[3] = target: Cyclin-dependent kinase 2 (Homo sapiens, UniProt P24941)
[4] = target: Cyclin-dependent kinase 3 (Homo sapiens, UniProt Q00526)
[5] = target: Serine/threonine-protein kinase N1 (Homo sapiens, UniProt Q16512)
[6] = target: Ras-related protein Rab-6A (Homo sapiens, UniProt P20340)
[7] = target: U5 small nuclear ribonucleoprotein 200 kDa helicase (Homo sapiens, UniProt O75643)
[8] = target: T2, Serine/threonine-protein kinase STK11 (Homo sapiens, UniProt Q15831)
T2 sequence (Q15831 whole entry): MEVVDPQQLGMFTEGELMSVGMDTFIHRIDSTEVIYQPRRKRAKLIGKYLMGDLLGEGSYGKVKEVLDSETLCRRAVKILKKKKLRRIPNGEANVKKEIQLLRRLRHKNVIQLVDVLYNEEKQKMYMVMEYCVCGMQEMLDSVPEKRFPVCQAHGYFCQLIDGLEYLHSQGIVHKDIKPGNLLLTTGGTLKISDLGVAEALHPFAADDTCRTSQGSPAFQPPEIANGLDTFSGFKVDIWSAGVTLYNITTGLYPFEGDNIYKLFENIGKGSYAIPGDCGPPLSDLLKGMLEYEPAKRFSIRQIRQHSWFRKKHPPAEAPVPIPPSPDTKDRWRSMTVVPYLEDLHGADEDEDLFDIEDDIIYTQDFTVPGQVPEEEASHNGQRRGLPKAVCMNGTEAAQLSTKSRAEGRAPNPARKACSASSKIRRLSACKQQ

TGF-beta receptor type-2 = TGF-beta receptor type-2 (Homo sapiens, UniProt P37173)
[9] = target: T3, Serine/threonine-protein kinase Chk1 (Homo sapiens, UniProt O14757)
T3 sequence (O14757 whole entry): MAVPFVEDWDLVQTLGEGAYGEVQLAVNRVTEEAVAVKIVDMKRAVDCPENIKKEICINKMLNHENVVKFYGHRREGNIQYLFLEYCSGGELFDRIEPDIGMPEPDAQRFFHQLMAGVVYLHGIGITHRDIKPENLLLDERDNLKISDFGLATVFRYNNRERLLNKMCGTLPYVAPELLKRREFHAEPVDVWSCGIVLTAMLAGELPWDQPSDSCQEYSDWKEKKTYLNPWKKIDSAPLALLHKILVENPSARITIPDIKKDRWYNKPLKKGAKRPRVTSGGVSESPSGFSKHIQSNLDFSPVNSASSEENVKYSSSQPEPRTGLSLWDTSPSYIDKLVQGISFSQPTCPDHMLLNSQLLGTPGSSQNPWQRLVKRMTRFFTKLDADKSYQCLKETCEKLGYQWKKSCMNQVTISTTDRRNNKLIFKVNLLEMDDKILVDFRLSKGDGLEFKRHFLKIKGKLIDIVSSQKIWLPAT

[10] = target: Casein kinase I isoform alpha (Homo sapiens, UniProt P48729)
[11] = target: Serine/threonine-protein kinase PAK 4 (Homo sapiens, UniProt O96013)
[12] = target: Serine/threonine-protein kinase N2 (Homo sapiens, UniProt Q16513)
[13] = target: Ribosomal protein S6 kinase alpha-3 (Homo sapiens, UniProt P51812)
Further: in the data inactive means no Kd found up to 30 µM.

Chain of Cyclin-dependent kinase 3 (Q00526 whole entry): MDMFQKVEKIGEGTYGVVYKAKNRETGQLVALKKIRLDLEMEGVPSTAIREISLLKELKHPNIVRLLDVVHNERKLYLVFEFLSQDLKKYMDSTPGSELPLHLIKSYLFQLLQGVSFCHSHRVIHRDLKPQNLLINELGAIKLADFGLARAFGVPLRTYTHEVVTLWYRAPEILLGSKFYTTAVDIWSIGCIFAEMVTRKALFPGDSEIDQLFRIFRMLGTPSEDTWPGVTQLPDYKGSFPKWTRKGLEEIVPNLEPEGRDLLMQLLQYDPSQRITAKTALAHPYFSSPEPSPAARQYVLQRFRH
Chain of Ras-related protein Rab-6A (P20340 whole entry): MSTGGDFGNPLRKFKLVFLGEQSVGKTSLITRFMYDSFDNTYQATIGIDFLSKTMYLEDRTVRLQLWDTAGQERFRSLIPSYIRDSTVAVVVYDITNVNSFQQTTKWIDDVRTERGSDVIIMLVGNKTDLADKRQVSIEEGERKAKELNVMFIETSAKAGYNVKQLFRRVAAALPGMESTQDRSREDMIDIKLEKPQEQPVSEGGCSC
Chain of TGF-beta receptor type-2 (P37173 whole entry): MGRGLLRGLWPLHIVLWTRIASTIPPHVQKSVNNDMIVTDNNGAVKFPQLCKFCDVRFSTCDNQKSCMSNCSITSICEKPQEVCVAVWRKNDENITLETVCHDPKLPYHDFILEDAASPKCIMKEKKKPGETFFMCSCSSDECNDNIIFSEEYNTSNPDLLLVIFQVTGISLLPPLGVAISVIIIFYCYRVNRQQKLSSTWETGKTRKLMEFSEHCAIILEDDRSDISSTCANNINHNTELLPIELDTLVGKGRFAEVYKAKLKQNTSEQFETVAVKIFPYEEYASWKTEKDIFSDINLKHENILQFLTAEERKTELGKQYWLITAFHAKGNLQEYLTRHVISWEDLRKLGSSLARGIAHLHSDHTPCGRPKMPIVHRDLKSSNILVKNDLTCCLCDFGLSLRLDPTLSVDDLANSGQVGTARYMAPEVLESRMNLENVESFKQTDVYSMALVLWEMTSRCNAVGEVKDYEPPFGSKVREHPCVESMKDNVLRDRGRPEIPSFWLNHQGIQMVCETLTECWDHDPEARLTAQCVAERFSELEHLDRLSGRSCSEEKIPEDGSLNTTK
Chain of Serine/threonine-protein kinase PAK 4 (O96013 whole entry): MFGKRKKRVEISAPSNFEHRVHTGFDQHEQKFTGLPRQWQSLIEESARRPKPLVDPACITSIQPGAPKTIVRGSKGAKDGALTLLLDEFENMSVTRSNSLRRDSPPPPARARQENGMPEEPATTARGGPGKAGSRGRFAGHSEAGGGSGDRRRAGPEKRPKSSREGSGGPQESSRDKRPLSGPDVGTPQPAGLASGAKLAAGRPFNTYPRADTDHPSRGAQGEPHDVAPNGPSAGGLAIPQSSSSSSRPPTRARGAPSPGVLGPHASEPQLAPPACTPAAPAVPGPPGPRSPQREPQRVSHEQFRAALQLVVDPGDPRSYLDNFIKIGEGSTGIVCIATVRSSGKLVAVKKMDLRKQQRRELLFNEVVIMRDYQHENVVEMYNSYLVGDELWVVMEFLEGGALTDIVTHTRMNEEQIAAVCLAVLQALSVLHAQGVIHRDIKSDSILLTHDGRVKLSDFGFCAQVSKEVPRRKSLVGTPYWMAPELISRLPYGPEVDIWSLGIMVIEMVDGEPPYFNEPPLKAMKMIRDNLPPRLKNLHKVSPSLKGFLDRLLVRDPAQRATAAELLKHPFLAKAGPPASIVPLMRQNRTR
Chain of Ribosomal protein S6 kinase alpha-3 (P51812 whole entry): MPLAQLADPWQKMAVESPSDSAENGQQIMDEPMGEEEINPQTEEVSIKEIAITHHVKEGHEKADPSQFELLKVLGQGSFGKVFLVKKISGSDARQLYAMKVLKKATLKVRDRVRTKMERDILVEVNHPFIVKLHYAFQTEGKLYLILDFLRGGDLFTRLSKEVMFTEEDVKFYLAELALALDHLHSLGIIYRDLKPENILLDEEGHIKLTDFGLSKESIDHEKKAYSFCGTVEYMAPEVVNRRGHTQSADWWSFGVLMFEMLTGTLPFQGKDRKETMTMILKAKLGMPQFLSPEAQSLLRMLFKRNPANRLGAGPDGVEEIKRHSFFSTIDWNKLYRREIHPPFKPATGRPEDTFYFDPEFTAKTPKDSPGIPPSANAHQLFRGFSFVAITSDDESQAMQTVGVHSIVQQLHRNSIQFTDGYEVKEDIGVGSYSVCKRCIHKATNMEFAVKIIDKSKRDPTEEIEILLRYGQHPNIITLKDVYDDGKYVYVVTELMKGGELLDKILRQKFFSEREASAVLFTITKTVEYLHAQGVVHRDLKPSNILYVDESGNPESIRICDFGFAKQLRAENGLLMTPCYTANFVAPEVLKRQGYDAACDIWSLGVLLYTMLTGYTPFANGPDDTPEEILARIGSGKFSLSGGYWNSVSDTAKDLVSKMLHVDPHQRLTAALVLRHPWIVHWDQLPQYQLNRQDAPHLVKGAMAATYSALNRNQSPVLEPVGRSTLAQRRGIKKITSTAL
Chain of Casein kinase I isoform alpha (P48729 whole entry, canonical isoform): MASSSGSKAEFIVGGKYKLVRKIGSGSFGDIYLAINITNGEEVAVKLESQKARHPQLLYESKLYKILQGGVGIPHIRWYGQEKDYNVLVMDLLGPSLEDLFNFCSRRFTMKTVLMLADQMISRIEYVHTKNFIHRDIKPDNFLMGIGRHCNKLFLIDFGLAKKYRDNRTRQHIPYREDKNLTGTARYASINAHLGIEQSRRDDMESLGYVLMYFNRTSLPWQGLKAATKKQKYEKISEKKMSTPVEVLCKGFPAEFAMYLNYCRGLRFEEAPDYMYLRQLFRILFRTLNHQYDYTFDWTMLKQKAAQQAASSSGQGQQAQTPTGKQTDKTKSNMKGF
Chain of Serine/threonine-protein kinase N2 (Q16513 whole entry): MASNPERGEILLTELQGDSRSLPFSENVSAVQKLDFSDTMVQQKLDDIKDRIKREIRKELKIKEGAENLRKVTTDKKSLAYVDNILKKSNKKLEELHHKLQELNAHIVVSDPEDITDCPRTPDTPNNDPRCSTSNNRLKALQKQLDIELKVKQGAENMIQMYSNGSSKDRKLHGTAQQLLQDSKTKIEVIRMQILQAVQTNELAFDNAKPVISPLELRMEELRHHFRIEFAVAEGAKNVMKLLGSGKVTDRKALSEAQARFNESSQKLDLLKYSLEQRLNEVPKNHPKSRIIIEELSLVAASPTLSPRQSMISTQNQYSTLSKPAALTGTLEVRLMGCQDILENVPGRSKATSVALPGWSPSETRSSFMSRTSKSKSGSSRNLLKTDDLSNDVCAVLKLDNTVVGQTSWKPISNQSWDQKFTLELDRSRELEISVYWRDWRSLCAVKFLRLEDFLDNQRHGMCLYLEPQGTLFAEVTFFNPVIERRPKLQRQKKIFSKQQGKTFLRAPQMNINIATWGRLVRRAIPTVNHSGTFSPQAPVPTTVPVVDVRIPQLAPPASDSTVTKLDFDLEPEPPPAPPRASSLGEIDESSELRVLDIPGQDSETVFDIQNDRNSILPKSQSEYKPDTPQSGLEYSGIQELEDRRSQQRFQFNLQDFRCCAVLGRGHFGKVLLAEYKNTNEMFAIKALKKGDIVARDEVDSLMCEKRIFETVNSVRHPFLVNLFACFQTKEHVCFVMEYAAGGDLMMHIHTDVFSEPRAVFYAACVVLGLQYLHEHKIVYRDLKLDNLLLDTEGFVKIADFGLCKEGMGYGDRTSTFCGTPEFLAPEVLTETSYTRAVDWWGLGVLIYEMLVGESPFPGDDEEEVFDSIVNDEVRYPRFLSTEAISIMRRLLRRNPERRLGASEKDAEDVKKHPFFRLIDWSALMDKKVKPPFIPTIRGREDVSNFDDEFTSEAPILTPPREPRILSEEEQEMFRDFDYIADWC
Chain of Serine/threonine-protein kinase N1 (Q16512 whole entry): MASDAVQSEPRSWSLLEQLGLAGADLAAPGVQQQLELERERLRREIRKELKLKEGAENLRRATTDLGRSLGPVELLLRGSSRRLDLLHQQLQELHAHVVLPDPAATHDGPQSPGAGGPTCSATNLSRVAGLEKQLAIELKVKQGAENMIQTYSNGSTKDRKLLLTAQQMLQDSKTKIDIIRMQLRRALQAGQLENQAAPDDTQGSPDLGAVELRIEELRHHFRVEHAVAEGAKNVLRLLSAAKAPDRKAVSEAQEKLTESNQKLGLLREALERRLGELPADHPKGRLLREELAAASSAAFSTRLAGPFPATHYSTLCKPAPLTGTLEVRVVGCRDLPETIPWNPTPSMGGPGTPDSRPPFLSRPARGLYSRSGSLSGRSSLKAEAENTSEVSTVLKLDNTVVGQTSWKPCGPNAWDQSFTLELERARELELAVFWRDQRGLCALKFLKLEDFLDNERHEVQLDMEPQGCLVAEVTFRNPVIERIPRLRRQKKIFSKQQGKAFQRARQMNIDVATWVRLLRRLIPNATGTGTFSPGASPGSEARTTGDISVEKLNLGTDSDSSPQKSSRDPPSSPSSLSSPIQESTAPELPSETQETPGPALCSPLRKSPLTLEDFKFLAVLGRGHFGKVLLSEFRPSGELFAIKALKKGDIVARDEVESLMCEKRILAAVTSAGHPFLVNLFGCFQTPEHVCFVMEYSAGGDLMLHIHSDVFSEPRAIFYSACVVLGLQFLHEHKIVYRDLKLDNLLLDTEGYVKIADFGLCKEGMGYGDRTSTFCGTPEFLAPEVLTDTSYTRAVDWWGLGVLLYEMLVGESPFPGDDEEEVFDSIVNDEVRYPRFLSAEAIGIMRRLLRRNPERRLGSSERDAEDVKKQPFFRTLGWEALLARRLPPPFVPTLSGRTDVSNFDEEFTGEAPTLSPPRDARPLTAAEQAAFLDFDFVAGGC

Row | Compound | Kd [1] | Kd [2] | Kd [3] | Kd [4] | Kd [5] | Kd [6] | Kd [7] | Kd [8] | Kd (TGF-beta receptor type-2) | Kd [9] | Kd [10] | Kd [11] | Kd [12] | Kd [13]
1 | CN(c1ncccc1CNc1nc(Nc2ccc3c(c2)CC(=O)N3)ncc1C(F)(F)F)S(C)(=O)=O [PF-00562271] | > 30 µM (inactive) | > 30 µM (inactive) | 1.07 µM (active) | 3.43 µM (active) | 7.96 µM (active) | > 30 µM (inactive) | > 30 µM (inactive) | 0.626 µM (active) | > 30 µM (inactive) | – | – | – | – | –
2 | C=CCn1c(=O)c2cnc(Nc3ccc(N4CCN(C)CC4)cc3)nc2n1-c1cccc(C(C)(C)O)n1 [ADAVOSERTIB] | > 30 µM (inactive) | > 30 µM (inactive) | > 30 µM (inactive) | > 30 µM (inactive) | > 30 µM (inactive) | > 30 µM (inactive) | > 30 µM (inactive) | > 30 µM (inactive) | > 30 µM (inactive) | – | – | – | – | –
3 | COc1cc2c(Oc3ccc4[nH]c(C)cc4c3F)ncnc2cc1OCCCN1CCCC1 [CEDIRANIB] | > 30 µM (inactive) | – | – | – | – | > 30 µM (inactive) | > 30 µM (inactive) | – | – | – | – | – | – | –
4 | N#CCNC(=O)c1ccc(-c2ccnc(Nc3ccc(N4CCOCC4)cc3)n2)cc1 [MOMELOTINIB] | > 30 µM (inactive) | > 30 µM (inactive) | – | – | > 30 µM (inactive) | > 30 µM (inactive) | > 30 µM (inactive) | > 30 µM (inactive) | > 30 µM (inactive) | > 30 µM (inactive) | > 30 µM (inactive) | > 30 µM (inactive) | > 30 µM (inactive) | > 30 µM (inactive)
5 | CC1(C)CNc2cc(NC(=O)c3cccnc3NCc3ccncc3)ccc21 [MOTESANIB] | > 30 µM (inactive) | – | – | – | – | > 30 µM (inactive) | > 30 µM (inactive) | – | – | – | – | – | – | –
6 | CN(C)C/C=C/C(=O)Nc1cc2c(Nc3ccc(F)c(Cl)c3)ncnc2cc1O[C@H]1CCOC1 [AFATINIB] | > 30 µM (inactive) | – | – | – | – | > 30 µM (inactive) | > 30 µM (inactive) | – | – | – | – | – | – | –
7 | Cn1cc(-c2[nH]c3cc(NC(=O)[C@H](N)C4CCCCC4)cc4c3c2C=NNC4=O)cn1 | > 30 µM (inactive) | > 30 µM (inactive) | > 30 µM (inactive) | > 30 µM (inactive) | 0.119 µM (active) | > 30 µM (inactive) | > 30 µM (inactive) | 4.37 µM (active) | 0.146 µM (active) | – | > 30 µM (inactive) | 0.053 µM (active) | > 30 µM (inactive) | > 30 µM (inactive)
8 | Cn1cnc2c(F)c(Nc3ccc(Br)cc3Cl)c(C(=O)NOCCO)cc21 [SELUMETINIB] | > 30 µM (inactive) | – | – | – | – | > 30 µM (inactive) | > 30 µM (inactive) | – | – | – | – | – | – | –
9 | COc1cc2ncnc(Nc3ccc(O)cc3)c2cc1OC [WHI-P131] | > 30 µM (inactive) | > 30 µM (inactive) | – | > 30 µM (inactive) | > 30 µM (inactive) | > 30 µM (inactive) | > 30 µM (inactive) | > 30 µM (inactive) | > 30 µM (inactive) | > 30 µM (inactive) | > 30 µM (inactive) | > 30 µM (inactive) | > 30 µM (inactive) | > 30 µM (inactive)
10 | Cn1c(=O)n(-c2ccc(C(C)(C)C#N)cc2)c2c3cc(-c4cnc5ccccc5c4)ccc3ncc21 [DACTOLISIB] | > 30 µM (inactive) | > 30 µM (inactive) | > 30 µM (inactive) | > 30 µM (inactive) | > 30 µM (inactive) | > 30 µM (inactive) | > 30 µM (inactive) | > 30 µM (inactive) | > 30 µM (inactive) | – | – | – | – | –
11 | COc1cc2c(N3CCN(C(=O)Nc4ccc(OC(C)C)cc4)CC3)ncnc2cc1OCCCN1CCCCC1 [TANDUTINIB] | > 30 µM (inactive) | – | – | – | – | > 30 µM (inactive) | – | – | – | – | – | – | – | –
12 | O=S(=O)(c1cccc2cnccc12)N1CCCNCC1 [FASUDIL] | > 30 µM (inactive) | > 30 µM (inactive) | – | > 30 µM (inactive) | 0.841 µM (active) | > 30 µM (inactive) | – | > 30 µM (inactive) | > 30 µM (inactive) | – | – | > 30 µM (inactive) | – | –
13 | CCN(CCCOc1ccc2c(Nc3cc(CC(=O)Nc4cccc(F)c4)n[nH]3)ncnc2c1)CCOP(=O)(O)O [BARASERTIB] | > 30 µM (inactive) | > 30 µM (inactive) | > 30 µM (inactive) | > 30 µM (inactive) | > 30 µM (inactive) | 0.033 µM | > 30 µM (inactive) | > 30 µM (inactive) | > 30 µM (inactive) | – | – | – | > 30 µM (inactive) | –
14 | CCN1CCN(Cc2ccc(Nc3ncc(F)c(-c4cc(F)c5nc(C)n(C(C)C)c5c4)n3)nc2)CC1 [ABEMACICLIB] | > 30 µM (inactive) | > 30 µM (inactive) | – | – | > 30 µM (inactive) | > 30 µM (inactive) | > 30 µM (inactive) | > 30 µM (inactive) | > 30 µM (inactive) | > 30 µM (inactive) | > 30 µM (inactive) | > 30 µM (inactive) | > 30 µM (inactive) | > 30 µM (inactive)
15 | C[C@@]1(C(=O)Nc2ccc(F)nc2)CCCN1c1nc(Nc2cc(C3CC3)n[nH]2)c2cccn2n1 [BMS-754807] | > 30 µM (inactive) | – | – | – | – | > 30 µM (inactive) | > 30 µM (inactive) | – | – | – | – | – | – | –
16 | CN1CCN(c2nc(C3=C(c4c[nH]c5ccccc45)C(=O)NC3=O)c3ccccc3n2)CC1 [SOTRASTAURIN] | – | > 30 µM (inactive) | > 30 µM (inactive) | > 30 µM (inactive) | 2.95 µM | > 30 µM (inactive) | > 30 µM (inactive) | > 30 µM (inactive) | > 30 µM (inactive) | > 30 µM (inactive) | > 30 µM (inactive) | > 30 µM (inactive) | – | > 30 µM (inactive)
17 | c1cc(OCCN2CCCCC2)cc(-c2n[nH]c3ccc(-c4nc[nH]n4)cc23)c1 [CC-401] | > 30 µM (inactive) | > 30 µM (inactive) | – | > 30 µM (inactive) | > 30 µM (inactive) | > 30 µM (inactive) | > 30 µM (inactive) | > 30 µM (inactive) | > 30 µM (inactive) | > 30 µM (inactive) | 5.16 µM (active) | > 30 µM (inactive) | > 30 µM (inactive) | > 30 µM (inactive)
18 | CC(C)CC(=O)Nc1[nH]nc2c1CN(C(=O)C1CCN(C)CC1)C2(C)C [PHA-793887] | > 30 µM (inactive) | > 30 µM (inactive) | – | 0.008 µM (active) | – | > 30 µM (inactive) | > 30 µM (inactive) | – | > 30 µM (inactive) | > 30 µM (inactive) | > 30 µM (inactive) | 0.864 µM (active) | > 30 µM (inactive) | > 30 µM (inactive)
19 | C[C@]1(O)C[C@@H](c2nc(-c3ccc4ccc(-c5ccccc5)nc4c3)c3c(N)nccn32)C1 [LINSITINIB] | > 30 µM (inactive) | > 30 µM (inactive) | – | > 30 µM (inactive) | > 30 µM (inactive) | > 30 µM (inactive) | > 30 µM (inactive) | > 30 µM (inactive) | > 30 µM (inactive) | – | – | – | – | –
